Test system: 282377-053-R-J1-PDC complex spheroid viability
Experiment: Anticancer human tumor 282377-053-R-J1-PDC patient-derived colon adenocarcinoma cell line growth inhibition [POLQ]
Settings: for IC50: curve of first compound; for viability, T/C: stronger effect = lower value; active = viability on the fitted dose curve at most 10% of control; inactive = the rest
Outline: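 Patient-derived tumour cells were co-cultured with HUVEC and mesenchymal stem cells as multicellular spheroids at 37 °C. They were treated with POLQ inhibitors (novobiocin, ART-558, RP6685) alone or combined with other agents. Top concentrations were at or near clinical Cmax (otherwise 10 microM; SN-38 at 1 microM), decreasing in half-log steps.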

[1] = second compound 0.0316 µM, first compound 0.0316 µM
[2] = second compound 0.0316 µM, first compound 0.1 µM
[3] = second compound 0.0316 µM, first compound 0.316 µM
[4] = second compound 0.0316 µM, first compound 1 µM
[5] = second compound 0.0316 µM, first compound 3.16 µM
[6] = second compound 0.0316 µM, first compound 10 µM
[7] = second compound 0.1 µM, first compound 0.0316 µM
[8] = second compound 0.1 µM, first compound 0.1 µM
[9] = second compound 0.1 µM, first compound 0.316 µM
[10] = second compound 0.1 µM, first compound 1 µM
[11] = second compound 0.1 µM, first compound 3.16 µM
[12] = second compound 0.1 µM, first compound 10 µM
[13] = second compound 0.316 µM, first compound 0.0316 µM
[14] = second compound 0.316 µM, first compound 0.1 µM
[15] = second compound 0.316 µM, first compound 0.316 µM
[16] = second compound 0.316 µM, first compound 1 µM
[17] = second compound 0.316 µM, first compound 3.16 µM
[18] = second compound 0.316 µM, first compound 10 µM
[19] = second compound 1 µM, first compound 0.0316 µM
[20] = second compound 1 µM, first compound 0.1 µM
[21] = second compound 1 µM, first compound 0.316 µM
[22] = second compound 1 µM, first compound 1 µM
[23] = second compound 1 µM, first compound 3.16 µM
[24] = second compound 1 µM, first compound 10 µM
[25] = second compound 3.16 µM, first compound 0.0316 µM
[26] = second compound 3.16 µM, first compound 0.1 µM
[27] = second compound 3.16 µM, first compound 0.316 µM
[28] = second compound 3.16 µM, first compound 1 µM
[29] = second compound 3.16 µM, first compound 3.16 µM
[30] = second compound 3.16 µM, first compound 10 µM
[31] = second compound 10 µM, first compound 0.0316 µM
[32] = second compound 10 µM, first compound 0.1 µM
[33] = second compound 10 µM, first compound 0.316 µM
[34] = second compound 10 µM, first compound 1 µM
[35] = second compound 10 µM, first compound 3.16 µM
[36] = second compound 10 µM, first compound 10 µM
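Also: spheroids exposed to compounds for seven days.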
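For viability, T/C in this document: 100% = DMSO vehicle control viability.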

O=C(Nc1ccc(O)c(NS(=O)(=O)c2ccc(F)cc2)c1)c1ccc(-c2ccccc2)cc1 + Nc1ccc(C#CCN(C(=O)Cc2ncc(C(F)(F)F)cc2C(F)(F)F)c2ccc(F)cc2)nn1
> 10000 nM: IC50 (second compound 0.0316 µM) | IC50 (second compound 0.1 µM) | IC50 (second compound 0.316 µM) | IC50 (second compound 1 µM) | IC50 (second compound 3.16 µM) | IC50 (second compound 10 µM)
inactive: viability, T/C [1] 92.8% | viability, T/C [2] 115% | viability, T/C [3] 98.1% | viability, T/C [4] 102% | viability, T/C [5] 97.9% | viability, T/C [6] 107% | viability, T/C [7] 93.1% | viability, T/C [8] 107% | viability, T/C [9] 100% | viability, T/C [10] 97.2% | viability, T/C [11] 104% | viability, T/C [12] 103% | viability, T/C [13] 96.9% | viability, T/C [14] 101% | viability, T/C [15] 112% | viability, T/C [16] 95.4% | viability, T/C [17] 100% | viability, T/C [18] 99.8% | viability, T/C [19] 96.5% | viability, T/C [20] 95.5% | viability, T/C [21] 98.7% | viability, T/C [22] 109% | viability, T/C [23] 87.1% | viability, T/C [24] 100% | viability, T/C [25] 113% | viability, T/C [26] 113% | viability, T/C [27] 103% | viability, T/C [28] 100% | viability, T/C [29] 109% | viability, T/C [30] 117% | viability, T/C [31] 124% | viability, T/C [32] 108% | viability, T/C [33] 109% | viability, T/C [34] 133% | viability, T/C [35] 110% | viability, T/C [36] 139%

CC(C)n1c(=O)n(C)c2cnc3cc(F)c(-c4ccc(OCCCN5CCCCC5)nc4)cc3c21 + Nc1ccc(C#CCN(C(=O)Cc2ncc(C(F)(F)F)cc2C(F)(F)F)c2ccc(F)cc2)nn1
inactive: viability, T/C [1] 101% | viability, T/C [2] 105% | viability, T/C [3] 107% | viability, T/C [4] 103% | viability, T/C [5] 110% | viability, T/C [6] 92.7% | viability, T/C [7] 117% | viability, T/C [8] 113% | viability, T/C [9] 108% | viability, T/C [10] 108% | viability, T/C [11] 97.2% | viability, T/C [12] 101% | viability, T/C [13] 111% | viability, T/C [14] 91.5% | viability, T/C [15] 109% | viability, T/C [16] 104% | viability, T/C [17] 106% | viability, T/C [18] 94.5% | viability, T/C [19] 116% | viability, T/C [20] 105% | viability, T/C [21] 103% | viability, T/C [22] 112% | viability, T/C [23] 118% | viability, T/C [24] 102% | viability, T/C [25] 105% | viability, T/C [26] 106% | viability, T/C [27] 103% | viability, T/C [28] 115% | viability, T/C [29] 108% | viability, T/C [30] 111% | viability, T/C [31] 121% | viability, T/C [32] 119% | viability, T/C [33] 114% | viability, T/C [34] 128% | viability, T/C [35] 127% | viability, T/C [36] 122%
> 10000 nM: IC50 (second compound 0.0316 µM) | IC50 (second compound 0.1 µM) | IC50 (second compound 0.316 µM) | IC50 (second compound 1 µM) | IC50 (second compound 3.16 µM) | IC50 (second compound 10 µM)

CC1COCCN1c1cc(C2(O)CC3CCC(C2)O3)c2cnn(-c3ccn[nH]3)c2n1 (stereo not given) + COC1C(OC(N)=O)C(O)C(Oc2ccc3c(O)c(NC(=O)c4ccc(O)c(CC=C(C)C)c4)c(=O)oc3c2C)OC1(C)C
325 nM: IC50 (second compound 0.1 µM)
506 nM: IC50 (second compound 0.316 µM)
456 nM: IC50 (second compound 3.16 µM)
307 nM: IC50 (second compound 10 µM)
inactive: viability, T/C [1] 112% | viability, T/C [2] 89.5% | viability, T/C [3] 53.8% | viability, T/C [4] 35.9% | viability, T/C [5] 24.6% | viability, T/C [6] 20.8% | viability, T/C [7] 88.8% | viability, T/C [8] 92.1% | viability, T/C [9] 50.4% | viability, T/C [10] 31.4% | viability, T/C [11] 28.2% | viability, T/C [12] 18.8% | viability, T/C [13] 92.8% | viability, T/C [14] 91.3% | viability, T/C [15] 60.8% | viability, T/C [16] 32.9% | viability, T/C [17] 34.8% | viability, T/C [18] 18.7% | viability, T/C [19] 92.4% | viability, T/C [20] 77.2% | viability, T/C [21] 57.9% | viability, T/C [22] 36.3% | viability, T/C [23] 28.4% | viability, T/C [24] 19.5% | viability, T/C [25] 115% | viability, T/C [26] 74.5% | viability, T/C [27] 54.8% | viability, T/C [28] 42% | viability, T/C [29] 33% | viability, T/C [30] 18.6% | viability, T/C [31] 101% | viability, T/C [32] 73.7% | viability, T/C [33] 47.3% | viability, T/C [34] 36.4% | viability, T/C [35] 27.9% | viability, T/C [36] 22.6%
430 nM: IC50 (second compound 0.0316 µM)
485 nM: IC50 (second compound 1 µM)

CC1COCCN1c1cc(-c2ccnn2C)c2ccnc(-c3ccn[nH]3)c2n1 (stereo not given) + Nc1ccc(C#CCN(C(=O)Cc2ncc(C(F)(F)F)cc2C(F)(F)F)c2ccc(F)cc2)nn1
997 nM: IC50 (second compound 3.16 µM)
1200 nM: IC50 (second compound 10 µM)
2120 nM: IC50 (second compound 0.0316 µM)
821 nM: IC50 (second compound 1 µM)
717 nM: IC50 (second compound 0.1 µM)
inactive: viability, T/C [1] 84.6% | viability, T/C [2] 78.7% | viability, T/C [3] 69.4% | viability, T/C [4] 62.3% | viability, T/C [5] 42.6% | viability, T/C [6] 35.1% | viability, T/C [7] 86.2% | viability, T/C [8] 88% | viability, T/C [9] 66.4% | viability, T/C [10] 44.3% | viability, T/C [11] 41.1% | viability, T/C [12] 41.2% | viability, T/C [13] 91% | viability, T/C [14] 81% | viability, T/C [15] 58.8% | viability, T/C [16] 49.4% | viability, T/C [17] 45.8% | viability, T/C [18] 41.5% | viability, T/C [19] 94.5% | viability, T/C [20] 83.2% | viability, T/C [21] 67.3% | viability, T/C [22] 43.8% | viability, T/C [23] 41.5% | viability, T/C [24] 33% | viability, T/C [25] 100% | viability, T/C [26] 78.3% | viability, T/C [27] 67.3% | viability, T/C [28] 49.4% | viability, T/C [29] 37.3% | viability, T/C [30] 44.8% | viability, T/C [31] 103% | viability, T/C [32] 84.2% | viability, T/C [33] 78.5% | viability, T/C [34] 47.9% | viability, T/C [35] 39.5% | viability, T/C [36] 46.3%
826 nM: IC50 (second compound 0.316 µM)

CNCc1ccc(-c2[nH]c3cc(F)cc4c3c2CCNC4=O)cc1 + COC1C(OC(N)=O)C(O)C(Oc2ccc3c(O)c(NC(=O)c4ccc(O)c(CC=C(C)C)c4)c(=O)oc3c2C)OC1(C)C
> 10000 nM: IC50 (second compound 0.0316 µM) | IC50 (second compound 0.1 µM) | IC50 (second compound 0.316 µM) | IC50 (second compound 1 µM) | IC50 (second compound 3.16 µM) | IC50 (second compound 10 µM)
inactive: viability, T/C [1] 115% | viability, T/C [2] 118% | viability, T/C [3] 106% | viability, T/C [4] 110% | viability, T/C [5] 130% | viability, T/C [6] 159% | viability, T/C [7] 113% | viability, T/C [8] 106% | viability, T/C [9] 104% | viability, T/C [10] 108% | viability, T/C [11] 122% | viability, T/C [12] 152% | viability, T/C [13] 104% | viability, T/C [14] 98.4% | viability, T/C [15] 96.6% | viability, T/C [16] 100% | viability, T/C [17] 133% | viability, T/C [18] 157% | viability, T/C [19] 102% | viability, T/C [20] 99% | viability, T/C [21] 121% | viability, T/C [22] 103% | viability, T/C [23] 128% | viability, T/C [24] 160% | viability, T/C [25] 98.7% | viability, T/C [26] 111% | viability, T/C [27] 97.6% | viability, T/C [28] 87.4% | viability, T/C [29] 121% | viability, T/C [30] 167% | viability, T/C [31] 107% | viability, T/C [32] 122% | viability, T/C [33] 110% | viability, T/C [34] 106% | viability, T/C [35] 127% | viability, T/C [36] 162%

— PubChem BioAssay AID1963852 (Molecular Pharmacology Branch, DTP, NCI, 2024)
